Assay results reported in patent US5281603A, “Angiotensin II receptor blocking 2,3,6 substituted quinazolinones” (American Cyanamid Company, priority 1993, dated 1994).
“And” between values parts separate entries of the source, which are not always exact repeats. Identical values can stand only once.

Tested on: Angiotensin II vasopressor response
Assay: AII challenge: antagonism of angiotensin II vasopressor response in conscious spontaneously hypertensive rats
Format: in vivo, rat (Male Okamoto-Aoki SHR)
Settings: 3 mg/kg I.V.; for % Inhibition / Average Change: SHR n=2; for Response After AII / Change / Control Before AII: individual SHR
Excerpt: By administering a compound of this invention to a rat, and then challenging with angiotensin II, a blockage of the vasopressor response is realized.
Conscious Male Okamoto-Aoki SHR, 16-20 weeks old, weighing approximately 330 g are purchased from Charles River Labs (Wilmington, Mass.). Conscious rats are restrained in a supine position with elastic tape. The area at the base of the tail is locally anesthetized by subcutaneous infiltration with 2% procaine. The ventral caudal artery and vein are isolated, and a cannula made of polyethylene (PE) 10-20 tubing (fused together by heat) is passed into the lower abdominal aorta and vena cava, respectively. The cannula is secured, heparinized (1,000 I.U./ml), sealed and the wound is closed. The animals are placed in plastic restraining cages in an upright position. The cannula is attached to a Statham P23Db pressure transducer, and pulsatile blood pressure is recorded to 10-15 minutes with a Gould Brush recorder. (Chan et al., (Drug Development Res., 18:75-94, 1989).
Angiotensin II (human sequence, Sigma Chem. Co., St. […] Then a test compound, vehicle or a known angiotensin II antagonist is administered i.v., i.p. or orally to each set of rats. The two doses of angiotensin II are given to each rat again at 30, 60, 90, 120, 180, 240 and 300 minutes post dosing the compound or vehicle. The vasopressor response of angiotensin II is measured for the increase in systolic blood pressure in mmHg. The percentage of antagonism or blockade of the vasopressor response of angiotensin II by a compound is calculated using the vasopressor response (increase in systolic blood pressure) of angiotensin II of each rat predosing the compound as 100%. A compound is considered active if at 30 mg/kg i.v. it antagonized at least 50% of the response.

[1] = AII 0.01 mcg/kg IV (so in the source), 60 min post dose
[2] = AII 0.01 mcg/kg IV (so in the source), 90 min post dose
[3] = AII 0.05 mcg/kg IV, 30 min post dose
[4] = AII 0.05 mcg/kg IV, 60 min post dose
[5] = AII 0.05 mcg/kg IV, 90 min post dose
[6] = AII 0.05 mcg/kg IV, 120 min post dose
[7] = AII 0.05 mcg/kg IV, 180 min post dose
[8] = AII 0.05 mcg/kg IV, 240 min post dose
[9] = AII 0.05 mcg/kg IV, 300 min post dose
[10] = AII 0.1 mcg/kg IV, 30 min post dose
[11] = AII 0.1 mcg/kg IV, 120 min post dose
[12] = AII 0.1 mcg/kg IV, 180 min post dose
[13] = AII 0.1 mcg/kg IV, 240 min post dose
[14] = AII 0.1 mcg/kg IV, 300 min post dose
[15] = AII 0.01 mcg/kg IV (so in the source), 60 min post dose, 3 mg/kg
[16] = AII 0.01 mcg/kg IV (so in the source), 90 min post dose, 3 mg/kg
[17] = AII 0.05 mcg/kg IV, 30 min post dose, 3 mg/kg
[18] = AII 0.05 mcg/kg IV, 60 min post dose, 3 mg/kg
[19] = AII 0.05 mcg/kg IV, 90 min post dose, 3 mg/kg
[20] = AII 0.05 mcg/kg IV, 120 min post dose, 3 mg/kg
[21] = AII 0.05 mcg/kg IV, 180 min post dose, 3 mg/kg
[22] = AII 0.05 mcg/kg IV, 240 min post dose, 3 mg/kg
[23] = AII 0.05 mcg/kg IV, 300 min post dose, 3 mg/kg
[24] = AII 0.1 mcg/kg IV, 30 min post dose, 3 mg/kg
[25] = AII 0.1 mcg/kg IV, 120 min post dose, 3 mg/kg
[26] = AII 0.1 mcg/kg IV, 180 min post dose, 3 mg/kg
[27] = AII 0.1 mcg/kg IV, 240 min post dose, 3 mg/kg
[28] = AII 0.1 mcg/kg IV, 300 min post dose, 3 mg/kg

With CCCCc1nc2ccc([C@@]3(C)NN[C@@H]4C(=O)N(C)C(=O)[C@@H]43)cc2c(=O)n1Cc1ccc(-c2ccccc2-c2nnn[nH]2)cc1 (relative stereo) [Example 10, (3-alpha,3aalpha,6aalpha)-3-[2-butyl-3,4-dihydro-4-oxo-3-[[2'-(1H-tetrazol-5-yl)-[1,1'-biphenyl]-4-yl]methyl]-6-quinazolinyl]-2,3,3a,6a-tetrahydro-3,5-dimethyl-pyrrolo[3,4-c]pyrazole-4,6(1H,5H)-dione] the “% Inhibition” value [1] was 53%, the “Average Change” value [1] was 22.5 mmHg and the “% Inhibition” value [2] was 47%. The “Average Change” value [2] was 25 mmHg, the “% Inhibition” value [3] was 66% and the “Average Change” value [3] was 16 mmHg. The “% Inhibition” value [4] was 68%, the “Average Change” value [4] was 15 mmHg and the “% Inhibition” value [5] was 63%. For the same compound, the “Average Change” value [5] was 17.5 mmHg, the “% Inhibition” value [6] was 47% and the “Average Change” value [6] was 25 mmHg. For the same compound, the “% Inhibition” value [7] was 47%, the “Average Change” value [7] was 25 mmHg and the “% Inhibition” value [8] was 47%. For the same compound, the “Average Change” value [8] was 25 mmHg, the “% Inhibition” value [9] was 32% and the “Average Change” value [9] was 32.5 mmHg. The “% Inhibition” value [10] was 53%, the “Average Change” value [10] was 22.5 mmHg and the “% Inhibition” value [11] was 47%. For the same compound, the “Average Change” value [11] was 25 mmHg, the “% Inhibition” value [12] was 37% and the “Average Change” value [12] was 30 mmHg. For the same compound, the “% Inhibition” value [13] was 40%, the “Average Change” value [13] was 28.5 mmHg and the “% Inhibition” value [14] was 23%. For the same compound, the “Average Change” value [14] was 36.5 mmHg, the “Response After AII” value [1] was 250 mmHg and the Change [15] was 25 mmHg and 20 mmHg. For the same compound, the “Control Before AII” value [15] was 225 mmHg and 230 mmHg, the Change [2] was 25 mmHg and the “Control Before AII” value [16] was 225 mmHg and 230 mmHg. For the same compound, the “Response After AII” value [16] was 250 mmHg and 255 mmHg, the Change [17] was 20 mmHg and 12 mmHg and the “Control Before AII” value [17] was 220 mmHg and 245 mmHg. For the same compound, the “Response After AII” value [17] was 240 mmHg and 257 mmHg, the Change [4] was 15 mmHg and the “Control Before AII” value [18] was 220 mmHg and 225 mmHg. The “Response After AII” value [18] was 235 mmHg and 240 mmHg, the Change [19] was 20 mmHg and 15 mmHg and the “Control Before AII” value [19] was 215 mmHg and 225 mmHg. The “Response After AII” value [19] was 235 mmHg and 240 mmHg, the Change [20] was 20 mmHg and 30 mmHg and the “Control Before AII” value [20] was 215 mmHg and 225 mmHg. For the same compound, the “Response After AII” value [20] was 235 mmHg and 255 mmHg, the “Control Before AII” value [7] was 210 mmHg and the Change [21] was 20 mmHg and 30 mmHg. For the same compound, the “Response After AII” value [21] was 230 mmHg and 240 mmHg, the Change [8] was 25 mmHg and the “Control Before AII” value [22] was 210 mmHg and 230 mmHg. The “Response After AII” value [22] was 235 mmHg and 255 mmHg, the Change [23] was 30 mmHg and 35 mmHg and the “Control Before AII” value [23] was 210 mmHg and 225 mmHg. For the same compound, the “Response After AII” value [23] was 240 mmHg and 260 mmHg, the Change [24] was 20 mmHg and 25 mmHg and the “Control Before AII” value [24] was 225 mmHg and 240 mmHg. The “Response After AII” value [24] was 245 mmHg and 265 mmHg, the Change [11] was 25 mmHg and the “Control Before AII” value [25] was 220 mmHg and 230 mmHg. For the same compound, the “Response After AII” value [25] was 245 mmHg and 255 mmHg, the Change [26] was 40 mmHg and 20 mmHg and the “Control Before AII” value [26] was 210 mmHg and 235 mmHg. For the same compound, the “Response After AII” value [26] was 250 mmHg and 255 mmHg, the Change [27] was 32 mmHg and 25 mmHg and the “Control Before AII” value [27] was 210 mmHg and 235 mmHg. The “Response After AII” value [27] was 242 mmHg and 260 mmHg, the Change [28] was 40 mmHg and 33 mmHg and the “Control Before AII” value [28] was 210 mmHg and 227 mmHg. The “Response After AII” value [28] was 250 mmHg and 260 mmHg.
